According to patent publication US20110112145A1, “Salts Of Methyl 2-((R))-(3-Chlorophenyl)((R)-1-((S)-2-(Methylamino)-3((R)-tetrahydro-2H-Pyran-3-YL)Propylcarbamoyl)Piperidin-3-YL)Methoxy)Ethylcarbamate” (priority 2008, published 2011):

Key:
[1] = Oral bioavailability in Beagle dogs; type: in vivo, male Beagle dogs; details: Dog
Procedure: Oral pharmacokinetic data in male Beagle dogs was obtained for a solution formulation of Compound D and capsule formulations of Compound A-form I, Compound B-form I, and Compound C-form I. Compound D was administered by oral gavage as a clear, colorless solution in water containing 2% DMSO (final pH=3.5), which was filtered, using a 0.22 μm MILLEX-GV filter, prior to administration. The above noted Compounds A, B, and C were each administered at a dose of 5 mg/kg in gelatin capsules (1.37 mL). Blood (50 μL) was sampled at the following time intervals: 0, 20, 40, 60, 120, 180, 240, 360, 480, 600, and 1440 min.
(§1) The concentration of each compound was quantified by LC/MS/MS analysis of an aliquot (25 μL blood+25 μL water) of these samples and the overall blood exposure reported as the Dose-Normalized Area Under the Curve (DNAUC) from a concentration versus time plot and expressed in the units kilogram hours per liter (kg·h/L). All oral bioavailabilities were calculated by dividing the DNAUC from an oral segment by the DNAUC from an i.v. segment and multiplying by 100.

[2] = Oral bioavailability in Sprague-Dawley rats; type: in vivo, male Sprague-Dawley rats; details: for DNAUC (Dose-Normalized Area Under the Curve, blood) / Oral Bioavailability (%): Rat; for Oral Bioavailability (%): oral DNAUC / i.v. DNAUC x 100
Procedure: Oral pharmacokinetic data in male Sprague-Dawley rats was obtained for a solution formulation of Compound D and a suspension formulation of micronized Compound E. Compound D was administered by oral gavage as a clear, colorless solution in a formulation with 0.5% methylcellulose in water at a dose of 10 mg/kg (5 mL of dose solution per kg). Blood was sampled at the following time intervals: 0, 5, 15, 30, 60, 120, 180, 240, 360, 480, and 1440 min. Compound E was administered as a suspension by gastric bolus in a formulation with 1% methylcellulose in water at a dose of 5 mg/kg (10 mL of dose solution per kg). Blood (50 μL) was sampled at the following time intervals: 0, 20, 40, 60, 120, 180, 240, 360, 480, 720, 960, 1200, and 1440 min.
as §1

[3] = oral, gelatin capsule, 5 mg/kg, form I of each compound
[4] = oral, gelatin capsule, 5 mg/kg, form I of each compound, oral DNAUC / i.v. DNAUC x 100
[5] = oral gavage, solution in 0.5% methylcellulose in water, 10 mg/kg
[6] = gastric bolus, suspension of micronized compound in 1% methylcellulose in water, 5 mg/kg

For CN[C@H](CNC(=O)N1CCC[C@@H]([C@@H](OCCNC(=O)OC)c2cccc(Cl)c2)C1)C[C@H]1CCCOC1.CN[C@H](CNC(=O)N1CCC[C@@H]([C@@H](OCCNC(=O)OC)c2cccc(Cl)c2)C1)C[C@H]1CCCOC1.Cc1ccc(C(=O)O[C@@H](C(=O)O)[C@@H](OC(=O)c2ccc(C)cc2)C(=O)O)cc1 [Compound A], the “DNAUC (Dose-Normalized Area Under the Curve, blood)” value [1, 3] was 0.38 kg·h/L and the “Oral Bioavailability (%)” value [1, 4] was 35%.
For CC(=O)N[C@@H](Cc1ccccc1)C(=O)O.CN[C@H](CNC(=O)N1CCC[C@@H]([C@@H](OCCNC(=O)OC)c2cccc(Cl)c2)C1)C[C@H]1CCCOC1 [Compound B], the “DNAUC (Dose-Normalized Area Under the Curve, blood)” value [1, 3] was 0.40 kg·h/L and the “Oral Bioavailability (%)” value [1, 4] was 37%.
In the case of CN[C@H](CNC(=O)N1CCC[C@@H]([C@@H](OCCNC(=O)OC)c2cccc(Cl)c2)C1)C[C@H]1CCCOC1.O=C(O)C(=O)O [Compound C], the “DNAUC (Dose-Normalized Area Under the Curve, blood)” value [1, 3] is reported as 0.64 kg·h/L and the “Oral Bioavailability (%)” value [1, 4] is reported as 59%.
With CN[C@H](CNC(=O)N1CCC[C@@H]([C@@H](OCCNC(=O)OC)c2cccc(Cl)c2)C1)C[C@H]1CCCOC1.O=C(O)/C=C/C(=O)O [Compound D, methyl 2-((R)-(3-chlorophenyl)((R)-1-((S)-2-(methylamino)-3-((R)-tetrahydro-2H-pyran-3-yl)propylcarbamoyl)piperidin-3-yl)methoxy)ethylcarbamate fumaric acid] the “DNAUC (Dose-Normalized Area Under the Curve, blood)” value [2, 5] was 0.048 kg·h/L, the “Oral Bioavailability (%)” value [2, 5] was 37% and the “DNAUC (Dose-Normalized Area Under the Curve, blood)” value ([1]; oral gavage, solution in water containing 2% DMSO (final pH=3.5), dose not given) was 0.46 kg·h/L. It also gave a bioavailability ([1]; male, Beagle, whole blood, oral gavage, solution in water containing 2% DMSO (final pH=3.5), dose not given, oral DNAUC / i.v. DNAUC x 100) of 43%.
For CN[C@H](CNC(=O)N1CCC[C@@H]([C@@H](OCCNC(=O)OC)c2cccc(Cl)c2)C1)C[C@H]1CCCOC1.CN[C@H](CNC(=O)N1CCC[C@@H]([C@@H](OCCNC(=O)OC)c2cccc(Cl)c2)C1)C[C@H]1CCCOC1.O=C(O)c1cc2ccccc2c(Cc2c(O)c(C(=O)O)cc3ccccc23)c1O [Compound E, 2:1 pamoate salt of methyl 2-((R)-(3-chlorophenyl)((R)-1-((S)-2-(methylamino)-3-((R)-tetrahydro-2H-pyran-3-yl)propylcarbamoyl)piperidin-3-yl)methoxy)ethylcarbamate], the “DNAUC (Dose-Normalized Area Under the Curve, blood)” value [2, 6] was 0.0067 kg·h/L, the “Oral Bioavailability (%)” value [2, 6] was 5% and the “in vivo oral bioavailability” value ([2]; statement in the background section, species not given) was “low”.
